Test results published in publication PMC8165439, “Chymase Dependent Pathway of Angiotensin II Generation and Rapeseed Derived Peptides for Antihypertensive Treatment of Spontaneously Hypertensive Rats” (Frontiers in Pharmacology, 2021).
Each block holds one compound with its values, some of them ahead of it. Where a SMILES comes first, the peptide text is derived from it. Where no end group is shown, it is not given here.

How the values were obtained:
[1] = test system: adult SHR; details: tail cuff method, ref Kirimura et al. (2005); cited from earlier work
Text: [Kirimura et al. (2005)], studied NK3201, another chymase inhibitor. […] However, the study by [Kirimura et al. (2005)], in addition to the obvious difference in the protocol (single oral dose vs. our chronic intravenous infusion) has another limitation: the tail cuff method was used to measure blood pressure.

[2] = test system: spontaneously hypertensive rats (SHR); assay: Metabolic parameters in metabolic cages during chronic treatment; assay type: in vivo, rat; details: mean ± SEM
Protocol: (§1) Systolic and diastolic blood pressure (SBP and DBP, respectively) and heart rate (HR) were measured in conscious unrestrained rats by telemetry technique, once a week for 24 h. 24 hour observations in metabolic cages (Tecniplast S. p.A. Buguggiate, Italy) were performed weekly. The diuresis, weight of feces, food and water intake were measured; urine and blood samples were collected on day 0, 7th and 14th, and were centrifuged at 1200 g (blood for 15 min and urine for 5 min), then the samples were stored at –80°C until analysis.
(§2) On day 0 all animals received saline (0.9% NaCl) and then, for 14 consecutive days, the substance tested. Chymostatin (CH, 2 mg/kg/day) was dissolved in DMSO and then diluted with PBS (final concentration of DMSO was 0.15%). Peptides RIY (7.5 mg/kg/day) and VWIS (12.5 mg/kg/day) were dissolved in saline (0.9% NaCl, S). The substances were administered through the femoral vein during 10 min in the volume of 0.5 ml to young SHR (infusion rate: 3 ml/h) and 1 ml to adult rats (infusion rate: 6 ml/h). Control rats received solvents (either DMSO or saline) in the same volume.
(§3) Urine volume was determined by gravimetric method. Sodium and potassium concentration in urine and plasma were measured by flame photometry (PFP7/C, Jenway Ltd, Stone, United Kingdom). Urine and plasma osmolality were measured by freezing point depression (Osmomat® 030 M, Gonotec, Berlin, Germany). These parameters were used to determine the excretion rates of total solutes (UosmV), sodium (UNaV) and potassium (UKV). Commercially available ELISA kits were used to measure nitric oxide metabolites (NOx, SunRed, Shanghai) and albumin (Albumin, ICL, Portland) concentration in urine. Excretion rate of NOx (UNOxV) and albumin (UAE) were calculated.

[3] = test system: spontaneously hypertensive rats (SHR); assay: Plasma and urine parameters during chronic treatment; assay type: in vivo, rat; details: mean ± SEM
Protocol: as §1, §2, §3

[4] = test system: ACE; details: ref Marczak et al. (2003); cited from earlier work
[5] = biological target: T1, Human chymase (Homo sapiens, UniProt P23946); details: pH 7.8
T1 sequence (P23946 22-247): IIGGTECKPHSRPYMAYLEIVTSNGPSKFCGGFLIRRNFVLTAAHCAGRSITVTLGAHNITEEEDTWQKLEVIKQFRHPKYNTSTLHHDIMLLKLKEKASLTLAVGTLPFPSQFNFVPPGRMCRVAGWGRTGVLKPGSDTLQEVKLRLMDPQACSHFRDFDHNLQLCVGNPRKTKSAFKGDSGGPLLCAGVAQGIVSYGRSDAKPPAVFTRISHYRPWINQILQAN
Protocol: Chymase digestion of ANG I in the presence of synthetized peptides was performed in vitro. The concentration of remaining ANG I was calculated in order to assess the ability of peptides to inhibit chymase.
Human chymase (72 units/mg protein; 259 µg protein/ml, vial volume 187 μl, Sigma) stock solution was prepared by diluting the initial sample of enzyme with Tris*HCl buffer (0.27 mM Tris*HCl, pH 7.8 and 150 mM NaCl) to obtain the final chymase concentration of 1.379 μg/ml.
Reactions (during which ANG I was converted to ANG II through removal of two C-terminal residues) were stopped at the desired times (0, 10, 20, 30, 40, 60, 80 min) by addition of 10 μl of 98% FA. […] Positive electrospray (ES+) was used as the ionization method for mass spectrometry.
The inhibitory effect of each peptide on chymase activity was expressed as remaining amount of substrate vs. time of digestion and presented as percentage ratio and calculated by the following formula [ANG It=X min/ANG It=0 min]x100% where ANG It=X min is the peak area of angiotensin I at desired time of digestion, ANG It=0 min is the peak area of angiotensin I at 0 min of digestion.

[6] = adult SHR (SHR-16), day 0 (baseline)
[7] = adult SHR (SHR-16), day 7 of daily iv CH 2, RIY 7.5, VWIS 12.5 mg/kg/day
[8] = adult SHR (SHR-16), day 7 of daily iv treatment
[9] = adult SHR (SHR-16), day 14 of daily iv CH 2, RIY 7.5, VWIS 12.5 mg/kg/day
[10] = adult SHR (SHR-16), day 14 of daily iv treatment
[11] = young SHR (SHR-6), day 0 (baseline), CH n=8-10, RIY n=5, VWIS n=5-6
[12] = young SHR (SHR-6), day 0 (baseline)
[13] = young SHR (SHR-6), day 7 of daily iv CH 2, RIY 7.5, VWIS 12.5 mg/kg/day
[14] = young SHR (SHR-6), day 7 of daily iv treatment
[15] = young SHR (SHR-6), day 14 of daily iv CH 2, RIY 7.5, VWIS 12.5 mg/kg/day
[16] = young SHR (SHR-6), day 14 of daily iv treatment

Compound: O=CNc1cnc(-c2ccccc2)n(CC(=O)NC(Cc2ccccc2)C(=O)C(=O)CCCOc2ccccn2)c1=O (stereo not drawn) [NK3201]
- blood pressure after a single oral dose [1]: did not lower blood pressure

- Diuresis [2, 6]: 7.1 ± 1.4 µL/min
- Faeces [2, 6]: 11±1 g/24 h
- Food intake [2, 6]: 20±1 g/24 h
- Water intake [2, 6]: 30±1 g/24 h
- Diuresis [2, 8]: 7.0 ± 1.3 µL/min
- Faeces [2, 8]: 11±2 g/24 h
- Food intake [2, 8]: 22±1 g/24 h
- Water intake [2, 8]: 34±1 g/24 h
- Diuresis [2, 10]: 8.0 ± 1.8 µL/min
- Faeces [2, 10]: 11±1 g/24 h
- Food intake [2, 10]: 19±1 g/24 h
- Water intake [2, 10]: 32±2 g/24 h
- Diuresis [2, 12]: 6.3 ± 0.8 µL/min
- Faeces [2, 12]: 10±1 g/24 h
- Food intake [2, 12]: 16±1 g/24 h
- Water intake [2, 12]: 22±2 g/24 h
- Diuresis [2, 14]: 7.2 ± 0.7 µL/min
- Faeces [2, 14]: 13±1 g/24 h
- Food intake [2, 14]: 19±1 g/24 h
- Water intake [2, 14]: 32±7 g/24 h
- Diuresis [2, 16]: 8.5 ± 0.8 µL/min
- Faeces [2, 16]: 14±1 g/24 h
- Food intake [2, 16]: 20±1 g/24 h
- Water intake [2, 16]: 30±2 g/24 h
- Plasma osmolality ([3]; adult SHR (SHR-16), day 0 (baseline), CH n=5-8, RIY n=5-6, VWIS n=5-6): 313±1 mOsm/l
- Plasma K+ concentration [3, 6]: 4.20 ± 0.18 mmol/L
- Plasma Na+ concentration [3, 6]: 133.0 ± 0.8 mmol/L
- Potassium excretion [3, 6]: 0.97 ± 0.21 µmol/min
- Sodium excretion [3, 6]: 0.90 ± 0.18 µmol/min
- Total solute excretion [3, 6]: 7.52±1.54 µOsm/min
- Plasma osmolality [3, 7]: 308±1 mOsm/l
- Plasma K+ concentration [3, 8]: 3.78 ± 0.31 mmol/L
- Plasma Na+ concentration [3, 8]: 130.2 ± 4.5 mmol/L
- Potassium excretion [3, 8]: 1.26 ± 0.27 µmol/min
- Sodium excretion [3, 8]: 1.02 ± 0.19 µmol/min
- Total solute excretion [3, 8]: 9.90±2.21 µOsm/min
- Plasma osmolality [3, 9]: 302±2 mOsm/l
- Plasma K+ concentration [3, 10]: 3.96 ± 0.06 mmol/L
- Plasma Na+ concentration [3, 10]: 135.8 ± 4.7 mmol/L
- Potassium excretion [3, 10]: 0.95 ± 0.21 µmol/min
- Sodium excretion [3, 10]: 0.81 ± 0.16 µmol/min
- Total solute excretion [3, 10]: 10.42±2.06 µOsm/min
- Plasma osmolality [3, 11]: 295±2 mOsm/l
- Plasma K+ concentration [3, 12]: 4.42 ± 0.20 mmol/L
- Plasma Na+ concentration [3, 12]: 131.8 ± 3.0 mmol/L
- Potassium excretion [3, 12]: 0.73 ± 0.20 µmol/min
- Sodium excretion [3, 12]: 0.69 ± 0.13 µmol/min
- Total solute excretion [3, 12]: 5.48±1.40 µOsm/min
- Plasma osmolality [3, 13]: 297±1 mOsm/l
- Plasma K+ concentration [3, 14]: 4.45 ± 0.16 mmol/L
- Plasma Na+ concentration [3, 14]: 133.40 ± 5.6 mmol/L
- Potassium excretion [3, 14]: 1.75 ± 0.15 µmol/min
- Sodium excretion [3, 14]: 0.84 ± 0.13 µmol/min
- Total solute excretion [3, 14]: 7.11±0.95 µOsm/min
- Plasma osmolality [3, 15]: 293±3 mOsm/l
- Plasma K+ concentration [3, 16]: 4.33 ± 0.14 mmol/L
- Plasma Na+ concentration [3, 16]: 131.4 ± 4.5 mmol/L
- Potassium excretion [3, 16]: 0.72 ± 0.11 µmol/min
- Sodium excretion [3, 16]: 0.63 ± 0.08 µmol/min
- Total solute excretion [3, 16]: 7.16±0.75 µOsm/min
Compound: CC[C@H](C)[C@H](NC(=O)[C@H](Cc1c[nH]c2ccccc12)NC(=O)[C@@H](N)C(C)C)C(=O)N[C@@H](CO)C(=O)O [VWIS, Valine-Tryptophan-Isoleucine-Serine] (H-VWIS-OH)
- Body weight ([2]; adult SHR (SHR-16), day 0 (baseline), CH n=8, RIY n=5-6, VWIS n=5-6): 304 ± 8 g
- Body weight [2, 7]: 312 ± 11 g
- Body weight [2, 9]: 329 ± 11 g
- Body weight [2, 11]: 110 ± 11 g
- Body weight [2, 13]: 145 ± 13 g
- Body weight [2, 15]: 174 ± 13 g
- stability / conversion to dipeptide in the presence of ACE [4]: transformed rapidly to dipeptide VW

- half-life time of ANG I (T1/2) in human chymase solution in absence of inhibitory peptides [5]: 16 min
Compound: DRVYIHPFHL [ANG I, angiotensin I]
